Target: T1, glucan synthase (GS) (Candida albicans, UniProt O13428)
T1 construct: Extraction of GS activity from membranes was performed at a protein concentration of 5 mg/mL in extraction buffer; endogenous in cells; host or cells: Candida albicans MY1055 (membrane fraction, detergent extraction, product entrapment)
Test: Glucan synthase inhibition (polymerization assay, 96-well)
Assay type: biochemical
Details: glucan synthase prepared from Candida albicans MY1055; 60 min incubation at 22° C.; read-out: Candida Albicans GS IC50 (ng/mL) (converted)
In short: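 Partially purified membrane glucan synthase from C. albicans MY1055, 60 min at 22° C with 0.5 mM 3H-UDPG, 25 μM GTP-γ-S, pH 7.5 HEPES, 25 mM KF. TCA-precipitated glucan filtered and scintillation counted; IC50 (ng/mL) from sigmoidal fit of duplicates over 3-fold dilutions.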

T1 sequence (O13428 1-1897): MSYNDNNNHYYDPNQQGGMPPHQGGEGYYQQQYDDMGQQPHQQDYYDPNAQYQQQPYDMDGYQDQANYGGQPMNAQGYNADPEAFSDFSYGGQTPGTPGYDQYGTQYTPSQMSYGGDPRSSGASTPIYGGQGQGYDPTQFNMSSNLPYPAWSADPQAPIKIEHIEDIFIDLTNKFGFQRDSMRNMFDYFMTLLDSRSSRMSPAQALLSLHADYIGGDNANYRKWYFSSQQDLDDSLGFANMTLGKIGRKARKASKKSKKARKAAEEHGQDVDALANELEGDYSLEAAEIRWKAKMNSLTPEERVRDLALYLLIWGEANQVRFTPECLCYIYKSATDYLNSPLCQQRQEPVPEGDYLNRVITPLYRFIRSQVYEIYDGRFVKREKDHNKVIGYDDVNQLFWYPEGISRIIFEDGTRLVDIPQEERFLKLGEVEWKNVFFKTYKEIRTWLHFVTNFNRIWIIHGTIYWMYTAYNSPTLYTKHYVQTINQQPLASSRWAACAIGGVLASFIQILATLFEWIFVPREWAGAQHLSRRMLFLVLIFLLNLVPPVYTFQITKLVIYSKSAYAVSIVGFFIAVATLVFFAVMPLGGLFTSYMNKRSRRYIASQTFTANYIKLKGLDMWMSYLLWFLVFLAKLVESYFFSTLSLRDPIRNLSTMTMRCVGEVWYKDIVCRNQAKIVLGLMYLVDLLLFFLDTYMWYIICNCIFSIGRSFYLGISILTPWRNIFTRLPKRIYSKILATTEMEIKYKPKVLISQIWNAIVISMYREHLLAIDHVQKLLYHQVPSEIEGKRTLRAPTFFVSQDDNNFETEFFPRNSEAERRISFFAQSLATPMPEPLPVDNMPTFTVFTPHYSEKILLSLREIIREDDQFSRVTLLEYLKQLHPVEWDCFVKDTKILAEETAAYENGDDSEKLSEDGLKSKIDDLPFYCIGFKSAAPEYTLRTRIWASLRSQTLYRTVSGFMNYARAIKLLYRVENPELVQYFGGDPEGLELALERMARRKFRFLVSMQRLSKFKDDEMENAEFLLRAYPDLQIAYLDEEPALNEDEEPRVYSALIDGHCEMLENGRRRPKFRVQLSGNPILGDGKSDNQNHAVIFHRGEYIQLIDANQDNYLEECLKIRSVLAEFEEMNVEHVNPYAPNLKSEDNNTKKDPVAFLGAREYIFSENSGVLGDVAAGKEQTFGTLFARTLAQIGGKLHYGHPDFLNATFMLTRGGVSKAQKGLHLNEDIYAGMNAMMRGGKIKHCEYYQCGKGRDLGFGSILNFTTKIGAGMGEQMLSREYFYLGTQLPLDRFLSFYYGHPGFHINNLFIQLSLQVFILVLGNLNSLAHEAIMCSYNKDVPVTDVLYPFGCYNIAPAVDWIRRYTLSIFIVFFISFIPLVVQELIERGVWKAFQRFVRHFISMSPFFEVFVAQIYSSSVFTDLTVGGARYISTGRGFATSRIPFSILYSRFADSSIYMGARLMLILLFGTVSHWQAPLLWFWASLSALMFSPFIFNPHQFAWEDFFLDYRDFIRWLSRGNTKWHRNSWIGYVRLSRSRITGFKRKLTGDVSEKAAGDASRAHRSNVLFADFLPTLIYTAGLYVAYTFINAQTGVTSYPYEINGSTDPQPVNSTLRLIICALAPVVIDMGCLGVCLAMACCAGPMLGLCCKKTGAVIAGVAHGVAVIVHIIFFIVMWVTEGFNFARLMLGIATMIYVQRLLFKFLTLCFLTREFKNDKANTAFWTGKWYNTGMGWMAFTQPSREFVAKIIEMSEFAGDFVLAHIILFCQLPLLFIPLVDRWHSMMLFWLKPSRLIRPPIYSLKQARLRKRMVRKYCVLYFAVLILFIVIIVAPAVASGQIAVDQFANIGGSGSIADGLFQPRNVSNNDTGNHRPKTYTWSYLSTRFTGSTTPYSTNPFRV
T1 sequence (O42825 1-195 partner limits assumed): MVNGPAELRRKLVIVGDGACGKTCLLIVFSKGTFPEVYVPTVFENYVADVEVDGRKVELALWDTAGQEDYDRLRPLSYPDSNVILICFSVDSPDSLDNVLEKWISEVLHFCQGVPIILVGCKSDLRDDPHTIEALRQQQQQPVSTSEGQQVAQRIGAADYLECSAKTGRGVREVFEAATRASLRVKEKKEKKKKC

SMILES	IC50 [nM]
CC(C)[C@@H](C)[C@@]1(C)CC[C@]2(C)[C@H]3CC[C@@H]4C5(COCC4(C)[C@@H](OCC4CCCN4C)[C@H](n4nnc(N)n4)C5)C3=CC[C@@]2(C)[C@@H]1C(=O)O (stereo in doubt) [Example 46, (1S,4aR,6aS,7R,8R,10aR,10bR,12aR,14R,15R)-14-(5-amino-2H-tetrazol-2-yl)-8-[(1R)-1,2-dimethylpropyl]-15-[(1-methyl-2-pyrrolidinyl)methoxy]-1,6,6a,7,8,9,10,10a,10b,11,12,12a-dodecahydro-1,6a,8,10a-tetramethyl-4H-1,4a-propano-2H-phenanthro[1,2-c]pyran-7-carboxylic acid]	21.4
CC(C)[C@@H](C)[C@@]1(C)CC[C@]2(C)[C@H]3CC[C@@H]4[C@@]5(COC[C@@]4(C)[C@@H](OCC(C)(N)C(C)C)[C@H](n4cnnn4)C5)C3=CC[C@@]2(C)[C@@H]1C(=O)O (stereo partly drawn) [Example 2A, (1S,4aR,6aS,7R,8R,10aR,10bR,12aR,14R,15R)-15-(2-amino-2,3-dimethylbutoxy)-8-[(1R)-1,2-dimethylpropyl]-14-(1H-tetrazol-1-yl)-1,6,6a,7,8,9,10,10a,10b,11,12,12a-dodecahydro-1,6a,8,10a-tetramethyl-4H-1,4a-propano-2H-phenanthro[1,2-c]pyran-7-carboxylic acid]	82.8
CC(C)[C@@H](C)[C@@]1(C)CC[C@]2(C)[C@H]3CC[C@@H]4[C@@]5(COC[C@@]4(C)[C@@H](OCC(C)(C)N)[C@H](n4nnc(N)n4)C5)C3=CC[C@@]2(C)[C@@H]1C(=O)O [Example 6, (1S,4aR,6aS,7R,8R,10aR,10bR,12aR,14R,15R)-15-(2-amino-2-methylpropoxy)-14-(5-amino-2H-tetrazol-2-yl)-8-[(1R)-1,2-dimethylpropyl]-1,6,6a,7,8,9,10,10a,10b,11,12,12a-dodecahydro-1,6a,8,10a-tetramethyl-4H-1,4a-propano-2H-phenanthro[1,2-c]pyran-7-carboxylic acid]	4.79
CC(C)[C@@H](C)[C@@]1(C)CC[C@]2(C)[C@H]3CC[C@@H]4[C@@]5(COC[C@@]4(C)[C@@H](OCC(C)(C(C)C)N(C)C)[C@H](n4ncnn4)C5)C3=CC(=O)[C@@]2(C)[C@@H]1C(=O)O (stereo partly drawn) [Example 4B, (1S,4aR,6aS,7R,8R,10aR,10bR,12aR,14R,15R)-15-[2-(dimethylamino)-2,3-dimethylbutoxy]-8-[(1R)-1,2-dimethylpropyl]-14-(2H-tetrazol-2-yl)-1,6,6a,7,8,9,10,10a,10b,11,12,12a-dodecahydro-1,6a,8,10a-tetramethyl-6-oxo-4H-1,4a-propano-2H-phenanthro[1,2-c]pyran-7-carboxylic acid]	63.1
CC(C)[C@@H](C)[C@@]1(C)CC[C@]2(C)[C@H]3CC[C@@H]4[C@@]5(COC[C@@]4(C)[C@@H](OC[C@H](N)C(C)(C)C)[C@H](n4nnc(N)n4)C5)C3=CC[C@@]2(C)[C@@H]1C(=O)O [Example 22, (1S,4aR,6aS,7R;8R,10aR,10bR,12aR,14R,15R)-15-[[(2R)-2-amino-3,3-dimethylbutyl]oxy]-14-(5-amino-2H-tetrazol-2-yl)-8-[(1R)-1,2-dimethylpropyl]-1,6,6a,7,8,9,10,10a,10b,11,12,12a-dodecahydro-1,6a,8,10a-tetramethyl-4H-1,4a-propano-2H-phenanthro[1,2-c]pyran-7-carboxylic acid]	6.11
CC(C)[C@@H](C)[C@@]1(C)CC[C@]2(C)[C@H]3CC[C@@H]4[C@@]5(COC[C@@]4(C)[C@@H](OCCC4(N)CCCC4)[C@H](n4nnc(N)n4)C5)C3=CC[C@@]2(C)[C@@H]1C(=O)O [Example 25, (1S,4aR,6aS,7R,8R,10aR,10bR,12aR,14R,15R)-15-[2-(1-aminocyclopentyl)ethoxy]-14-(5-amino-2H-tetrazol-2-yl)-8-[(1R)-1,2-dimethylpropyl]-1,6,6a,7,8,9,10,10a,10b,11,12,12a-dodecahydro-1,6a,8,10a-tetramethyl-4H-1,4a-propano-2H-phenanthro[1,2-c]pyran-7-carboxylic acid]	40.5
CC(C)[C@@H](C)[C@@]1(C)CC[C@]2(C)[C@H]3CC[C@@H]4[C@@]5(COC[C@@]4(C)[C@@H](OCC(C)(N)CCO)[C@H](n4nnc(N)n4)C5)C3=CC[C@@]2(C)[C@@H]1C(=O)O (stereo partly drawn) [Example 122, (1S,4aR,6aS,7R,8R,10aR,10bR,12aR,14R,15R)-15-(2-amino-4-hydroxy-2-methylbutoxy)-14-(5-amino-2H-tetrazol-2-yl)-8-[(1R)-1,2-dimethylpropyl]-1,6,6a,7,8,9,10,10a,10b,11,12,12a-dodecahydro-1,6a,8,10a-tetramethyl-4H-1,4a-propano-2H-phenanthro[1,2-c]pyran-7-carboxylic acid]	16.7
CNC1(CO[C@H]2[C@H](n3nnc(N)n3)C[C@@]34COC[C@]2(C)[C@@H]3CC[C@H]2C4=CC[C@@]3(C)[C@H](C(=O)O)[C@@](C)([C@H](C)C(C)C)CC[C@]23C)CCOCC1 [Example 27, (1S,4aR,6aS,7R,8R,10aR,10bR,12aR,14R,15R)-14-(5-amino-2H-tetrazol-2-yl)-8-[(1R)-1,2-dimethylpropyl]-15-[[tetrahydro-4-(methylamino)-2H-pyran-4-yl]methoxy]-1,6,6a,7,8,9,10,10a,10b,11,12,12a-dodecahydro-1,6a,8,10a-tetramethyl-4H-1,4a-propano-2H-phenanthro[1,2-c]pyran-7-carboxylic acid]	5.86
CC(C)[C@@H](C)[C@@]1(C)CC[C@]2(C)[C@H]3CC[C@@H]4[C@@]5(COC[C@@]4(C)[C@@H](OC[C@@](C)(N)C(C)C)[C@H](n4nnc(N)n4)C5)C3=CC[C@@]2(C)[C@@H]1C(N)=O [Example 51, (1S,4aR,6aS,7R,8R,10aR,10bR,12aR,14R,15R)-15-[[(2S)-2-amino-2,3-dimethylbutyl]oxy]-14-(5-amino-2H-tetrazol-2-yl)-8-[(1 R)-1,2-dimethylpropyl]-1,6,6a,7,8,9,10,10a,10b,11,12,12a-dodecahydro-1,6a,8,10a-tetramethyl-4H-1,4a-propano-2H-phenanthro[1,2-c]pyran-7-carboxamide]	3.06

Next, values leading:

IC50 [nM]	SMILES
10.7	CC(C)[C@@H](C)[C@@]1(C)CC[C@]2(C)[C@H]3CC[C@@H]4[C@@]5(COC[C@@]4(C)[C@@H](OC[C@](C)(NCc4ccccc4)C(C)C)[C@H](n4nnc(N)n4)C5)C3=CC[C@@]2(C)[C@@H]1C(=O)O [Example 61, (1S,4aR,6aS,7R,8R,10aR,10bR,12aR,14R,15R)-14-(5-amino-2H-tetrazol-2-yl)-15-[[(2R)-2,3-dimethyl-2-[(phenylmethyl)amino]butyl]oxy]-8-[(1R)-1,2-dimethylpropyl]-1,6,6a,7,8,9,10,10a,10b,11,12,12a-dodecahydro-1,6a,8,10a-tetramethyl-4H-1,4a-propano-2H-phenanthro[1,2-c]pyran-7-carboxylic acid]
20.9	CCC[C@H](CO[C@H]1[C@H](n2nnc(N)n2)C[C@@]23COC[C@]1(C)[C@@H]2CC[C@H]1C3=CC[C@@]2(C)[C@H](C(=O)O)[C@@](C)([C@H](C)C(C)C)CC[C@]12C)N(C)C [Example 77, (1S,4aR,6aS,7R,8R,10aR,10bR,12aR,14R,15R)-14-(5-amino-2H-tetrazol-2-yl)-15-[[(2R)-2-(dimethylamino)pentyl]oxy]-8-[(1R)-1,2-dimethylpropyl]-1,6,6a,7,8,9,10,10a,10b,11,12,12a-dodecahydro-1,6a,8,10a-tetramethyl-4H-1,4a-propano-2H-phenanthro[1,2-c]pyran-7-carboxylic acid]
8.78	CN[C@](C)(CO[C@H]1[C@H](n2nnc(N)n2)C[C@@]23COC[C@]1(C)[C@@H]2CC[C@H]1C3=CC[C@@]2(C)[C@H](C(=O)O)[C@@](C)([C@H](C)C(C)C)CC[C@]12C)C(C)(C)C [Example 112, (1S,4aR,6aS,7R,8R,10aR,10bR,12aR,14R,15R)-14-(5-amino-2H-tetrazol-2-yl)-8-[(1R)-1,2-dimethylpropyl]-15-[[(2S)-2,3,3-trimethyl-2-(methylamino)butyl]oxy]-1,6,6a,7,8,9,10,10a,10b,11,12,12a-dodecahydro-1,6a,8,10a-tetramethyl-4H-1,4a-propano-2H-phenanthro[1,2-c]pyran-7-carboxylic acid]
46.4	CCNC(C)(COC1C(n2ncnn2)CC23COCC1(C)C2CCC1C3=CCC2(C)C(C(=O)O)C(C)(C(C)C(C)C)CCC12C)C(C)C [Example 109, (1S,4aR,6aS,7R,8R,10aR,10bR,12aR,14R,15R)-8-[(1R)-1,2-dimethylpropyl]-15-[[(25)-2-(ethylamino)-2,3-dimethylbutyl]oxy]-14-(2H-tetrazol-2-yl)-1,6,6a,7,8,9,10,10a,10b,11,12,12a-dodecahydro-1,6a,8,10a-tetramethyl-4H-1,4a-propano-2H-phenanthro[1,2-c]pyran-7-carboxylic acid]

— US8722727B2, “Antifungal agents” (Seynix, Inc., priority 2008, dated 2014)
